Experimental data taken from PMC6685951, “Migration of Bacteriocins Across Gastrointestinal Epithelial and Vascular Endothelial Cells, as Determined Using In Vitro Simulations” (Scientific Reports, 2019).
In brackets after ≈: the same amount, converted by molar mass. Where a SMILES comes first, the peptide text is derived from it. Bridges are numbered along the chain shown (N, C = ends).

How the values were obtained:
Caco-2 cells [1] = assay: XTT viability assay, Caco-2; format: cell-based, human; conditions: 24 h, 37 °C
Description: (§1) For viability and cytotoxicity studies, cells were seeded in 96-well flat-bottom culture plates (1 × 10^4 cells/well). To determine migration of nisin A, plantaricin 423 and bacST4SA across the gastrointestinal epithelial and vascular endothelial barriers, HUVEC and Caco-2 cells were grown on an 8 µm pore size tissue culture insert, as shown in Fig. 1. All cell culture experiments were done in triplicate and have been repeated more than three times.
Cells were grown in 100 µL of culture medium for 24 h at 37 °C. The bacteriocins were separately added to the cells at concentrations of 25 µM, 50 µM and 100 µM. Sterile ultrapure water was used as control. After 24 h of incubation at 37 °C, the reaction mixture containing PMS (N-methyl-dibenzopyrazine-methylsulfate/phenazine methosulphate) and XTT solution, was added to each well and incubated for 4 h at 37 °C. Absorbance readings were recorded at 450 nm, using a microtiter plate reader. The percentage viability was calculated as AT/AC × 100; where AT is the absorbance of peptide-treated cells and AC is the absorbance of control (untreated cells).

Caco-2 cells [2] = assay: Neutral red viability assay, Caco-2; format: cell-based, human; conditions: 24 h, 37 °C
Description: as §1
Cells were treated with different concentrations of the peptides as described for the XTT assay. Sterile ultrapure water was used as control. After incubation at 37 °C for 24 h, neutral red solution was added to the cells (10% of the culture volume). After 4 h of incubation at 37 °C, the medium was removed by aspiration and the cells were rinsed with neutral red fixative. The fixative was removed, the dye solubilized by adding […] and the cells were gently stirred for 10 min on a gyratory shaker. Absorbance readings were recorded at 540 nm and 690 nm, respectively, using a microtiter plate reader. The percentage viability was calculated as the absorbance of treated cells divided by the absorbance of untreated cells (AT/AC × 100).

L. monocytogenes EGDe = format: cell-based, Listeria monocytogenes; conditions: microtiter plate, Listeria enrichment broth, 37 °C, OD600; lowest concentration inhibiting growth after 18 h
Description: The BCA assay was used according to the manufactures instructions to determine the concentration of the peptides. The MIC of the peptides was determined using a microtiter plate. Briefly, L. monocytogenes EGDe was inoculated into Listeria enrichment broth (LEB) and incubated overnight at 37 °C. The culture was inoculated into fresh LEB and incubated until an OD600 of 0.1 was reached. A series of peptide concentrations was prepared and 50 µL of each added per well, followed by the addition of 150 µL culture. The controls were ddH2O containing 0.1% (v/v) TFA with 150 µL culture or media. Microtiter plates were incubated at 37 °C and OD600 readings were taken at T0, T5 and T18 (hours). The MIC was determined as the lowest peptide concentration required to inhibit the growth of L. monocytogenes EGDe after 18 h.

Caco-2 cell monolayer = assay: Migration across Caco-2 monolayer on transmigration inserts; format: in vitro ADME, human; conditions: 3 h
Description: as §1
HUVECs and Caco-2 cells were seeded onto transmigration inserts (Fig. 1) at a cell density of 1 × 10^5 cells/insert (200 µL). Inserts were carefully placed in a 24-well tissue culture plate containing 700 µL cell growth media. […] The integrity of the monolayers was monitored by ensuring trans-epithelial electrical resistance (TEER) readings remained above 300 Ω throughout the experiment (Millicell-ERS volt-ohm meter, Merck)[51],[52],[62]. […] Transmigration inserts containing no monolayer, was used to determine the total fluorescence. Samples were incubated for 3 h while absorbance was measured at 490 nm every 30 min using a microplate reader. Before each reading, inserts were removed and placed into new microplates containing fresh media. […]
The percentage of peptide that attached to, or entered the cells was quantified by subtracting the sum of migrated peptide (eq. 4) and retained peptide (eq. 5) from the total fluorescence. […]

With `CC(C)C[C@@H]1NC(=O)[C@H](Cc2c[nH]cn2)NC(=O)[C@H](CO)NC(=O)[C@H](C(C)C)NC(=O)[C@H](CO)NC(=O)[C@@H](NC(=O)[C@H](CO)NC(=O)[C@H](Cc2ccccc2)NC(=O)[C@H](C)NC(=O)[C@H](CCC(N)=O)NC(=O)CNC(=O)[C@H](Cc2c[nH]c3ccccc23)NC(=O)[C@H](CC(N)=O)NC(=O)[C@@H](NC(=O)[C@H](CO)NC(=O)[C@@H]2CSSC[C@H](NC(=O)[C@@H](NC(=O)[C@@H](NC(=O)CNC(=O)[C@H](CC(N)=O)NC(=O)CNC(=O)[C@H](Cc3ccc(O)cc3)NC(=O)[C@H](Cc3ccc(O)cc3)NC(=O)[C@@H](N)CCCCN)C(C)C)[C@@H](C)O)C(=O)NCC(=O)N[C@@H](CCCCN)C(=O)N[C@@H](Cc3c[nH]cn3)C(=O)N[C@@H](CO)C(=O)N2)C(C)C)CSSC[C@@H](C(=O)O)NC(=O)[C@H](CCCCN)NC(=O)CNC(=O)[C@H](Cc2c[nH]cn2)NC(=O)CNC(=O)[C@H](Cc2ccccc2)NC(=O)[C@H](CC(N)=O)NC(=O)[C@H](C)NC1=O` [plantaricin 423] (H-KYYGNGVTCGKHSCSVNWGQAFSCSVSHLANFGHGKC-OH; disulfide 9-14, 24-37; N-terminus and C-terminus assumed) the “cell viability (XTT)” value (Caco-2 cells [1]; Caco-2, 25 µM and 50 µM (up to 50 µM), absorbance 450 nm) was “did not cause significant decreases”, the “cell viability (XTT)” value (Caco-2 cells [1]; Caco-2, 100 µM) was “slight reduction” and the “cell viability (neutral red)” value (Caco-2 cells [2]; Caco-2, 25 µM and 50 µM (up to 50 µM)) was “did not cause significant decreases”. The “cell viability (neutral red)” value (Caco-2 cells [2]; Caco-2, 100 µM) was “slight reduction”, the MIC (L. monocytogenes EGDe) was 12 µM (≈ 47.2 µg/mL) and the “percentage attached and/or entered peptide” value (Caco-2 cell monolayer; Caco-2, labelled peptide 50 µM, total fluorescence minus migrated and residual peptide) was 11%. It also gave a migrated peptide (Caco-2 cell monolayer; Caco-2 monolayer on 8 µm pore insert, apical addition, NHS-fluorescein labelled peptide 50 µM, 37 °C, TEER above 300 Ω, read at 490 nm, % of no-monolayer control, triplicate) of 85%.
